From PubChem BioAssay AID248 (DTP/NCI, 2004)
Values joined by “and” are separate entries in the source; they are usually repeats but may differ in a detail not shown here. Equal values may be shown once. Inconclusive results and toxic doses are left out.

Tested on: L1210 leukemia ip in BDF1 mice, survival T/C
Assay: NCI In Vivo Anticancer Drug Screen. Data for tumor model L1210 Leukemia (intraperitoneal) in B6D2F1 (BDF1) mice
Conditions: endpoint: mean survival time, higher = longer survival
In short: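 Each compound was tested against a transplantable tumor grown in mice. The endpoint was survival, with treated animals benchmarked against vehicle controls as a simple ratio.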

[1] = dose: 100.0 mg/kg/injection, schedule: Q01DX009 (ip), vehicle: saline
[2] = dose: 100.0 mg/kg/injection, schedule: Q04DX003 (ip), vehicle: saline
[3] = dose: 200.0 mg/kg/injection, schedule: Q01DX009 (ip), vehicle: saline
[4] = dose: 200.0 mg/kg/injection, schedule: Q04DX003 (ip), vehicle: saline
[5] = dose: 400.0 mg/kg/injection, schedule: Q01DX009 (ip), vehicle: saline
[6] = dose: 400.0 mg/kg/injection, schedule: Q04DX003 (ip), vehicle: saline
[7] = dose: 100.0 mg/kg/injection, schedule: Q04DX003 (ip), vehicle: Klucel (hydroxypropylcellulose) (HPC)
[8] = dose: 200.0 mg/kg/injection, schedule: Q04DX003 (ip), vehicle: Klucel (hydroxypropylcellulose) (HPC)
[9] = dose: 100.0 mg/kg/injection, schedule: Q01DX001 (ip), vehicle: carboxymethylcellulose (CMC)
[10] = dose: 200.0 mg/kg/injection, schedule: Q01DX001 (ip), vehicle: carboxymethylcellulose (CMC)
[11] = dose: 100.0 mg/kg/injection, schedule: Q01DX001 (ip), vehicle: saline
[12] = dose: 200.0 mg/kg/injection, schedule: Q01DX001 (ip), vehicle: saline
[13] = dose: 400.0 mg/kg/injection, schedule: Q01DX001 (ip), vehicle: saline
[14] = dose: 100.0 mg/kg/injection, schedule: Q04DX002 (ip), vehicle: Klucel (hydroxypropylcellulose) (HPC)
[15] = dose: 200.0 mg/kg/injection, schedule: Q04DX002 (ip), vehicle: Klucel (hydroxypropylcellulose) (HPC)
[16] = dose: 400.0 mg/kg/injection, schedule: Q04DX002 (ip), vehicle: Klucel (hydroxypropylcellulose) (HPC)

Structure (SMILES): Cc1c[n+]2ccc3ccccc3c2c2ccccc12
- T/C (dose: 1.0 mg/kg/injection, schedule: Q01DX015 (ip), vehicle: carboxymethylcellulose (CMC)): 100 % of control
- T/C (dose: 1.25 mg/kg/injection, schedule: Q01DX009 (ip), vehicle: saline): 94 % of control
- T/C (dose: 2.0 mg/kg/injection, schedule: Q01DX015 (ip), vehicle: carboxymethylcellulose (CMC)): 105 % of control
- T/C (dose: 2.5 mg/kg/injection, schedule: Q01DX009 (ip), vehicle: saline): 95 % of control
- T/C (dose: 2.5 mg/kg/injection, schedule: Q04DX003 (ip), vehicle: acetone): 103 % of control
- T/C (dose: 4.0 mg/kg/injection, schedule: Q01DX015 (ip), vehicle: carboxymethylcellulose (CMC)): 117 % of control
- T/C (dose: 5.0 mg/kg/injection, schedule: Q01DX001 (ip), vehicle: acetone): 106 % of control
- T/C (dose: 5.0 mg/kg/injection, schedule: Q01DX009 (ip), vehicle: saline): 113 % of control
- T/C (dose: 5.0 mg/kg/injection, schedule: Q04DX003 (ip), vehicle: acetone): 101 % of control
- T/C (dose: 7.0 mg/kg/injection, schedule: Q01DX009 (ip), vehicle: saline): 113 % of control
- T/C (dose: 8.0 mg/kg/injection, schedule: Q01DX015 (ip), vehicle: carboxymethylcellulose (CMC)): 112 % of control
- T/C (dose: 10.0 mg/kg/injection, schedule: Q01DX001 (ip), vehicle: acetone): 117 % of control

Structure (SMILES): CN(C)CCNS(C)(=O)=O
- T/C [1]: 105 % of control
- T/C [2]: 98 % of control
- T/C [3]: 105 % of control
- T/C [4]: 100 % of control
- T/C [5]: 109 % of control
- T/C [6]: 100 % of control

Structure (SMILES): CCN1C(=O)C(Cl)=C(Cl)C1=O
- T/C (dose: 1.56 mg/kg/injection, schedule: Q01DX009 (ip), vehicle: saline with Tween-80): 94 % of control
- T/C (dose: 3.13 mg/kg/injection, schedule: Q01DX009 (ip), vehicle: saline with Tween-80): 91 % of control
- T/C (dose: 6.25 mg/kg/injection, schedule: Q01DX009 (ip), vehicle: saline with Tween-80): 92 % of control and 87 % of control

Structure (SMILES): Oc1ccc(Nc2ncnc3cc(Cl)ccc23)cc1CN(c1ccccc1)c1ccccc1
- T/C [2]: 102 % of control
- T/C [4]: 89 % of control

Structure (SMILES): Cc1cc(C(=O)NC(CCC(=O)O)C(=O)O)cc(C)c1N(C)Cc1cnc2nc(N)nc(N)c2n1 (stereo unspecified)
- T/C (dose: 3.13 mg/kg/injection, schedule: Q01DX009 (ip), vehicle: saline): 158 % of control
- T/C (dose: 6.25 mg/kg/injection, schedule: Q01DX009 (ip), vehicle: saline): 161 % of control
- T/C (dose: 12.5 mg/kg/injection, schedule: Q01DX009 (ip), vehicle: saline): 153 % of control and 165 % of control
- T/C (dose: 50.0 mg/kg/injection, schedule: Q01DX009 (ip), vehicle: sodium bicarbonate): 101 % of control

Structure (SMILES): CCC[CH2][Sn]1([CH2]CCC)[O]CC2(CCCCC2)C[O]1
- T/C (dose: 2.5 mg/kg/injection, schedule: Q04DX002 (ip), vehicle: saline + alcohol): 94 % of control and 102 % of control
- T/C (dose: 5.0 mg/kg/injection, schedule: Q04DX002 (ip), vehicle: saline + alcohol): 105 % of control and 118 % of control
- T/C (dose: 10.0 mg/kg/injection, schedule: Q04DX002 (ip), vehicle: saline + alcohol): 105 % of control
- T/C (dose: 20.0 mg/kg/injection, schedule: Q04DX002 (ip), vehicle: saline + alcohol): 93 % of control and 105 % of control

Structure (SMILES): CN(N=O)C(=O)NNC(=O)N(C)N=O
- T/C (dose: 6.25 mg/kg/injection, schedule: Q01DX Z (ip), vehicle: carboxymethylcellulose (CMC)): 103 % of control
- T/C (dose: 20.0 mg/kg/injection, schedule: Q01DX Z (ip), vehicle: carboxymethylcellulose (CMC)): 152 % of control
- T/C (dose: 50.0 mg/kg/injection, schedule: Q01DX Z (ip), vehicle: carboxymethylcellulose (CMC)): 89 % of control

Structure (SMILES): CC(C)N=C(N)C(N)=NC(C)C
- T/C [1]: 97 % of control
- T/C [2]: 98 % of control
- T/C [3]: 92 % of control
- T/C [4]: 104 % of control
- T/C [5]: 96 % of control
- T/C [6]: 96 % of control

Structure (SMILES): Cc1ccc(C(=O)C=Nc2ccc(C(=O)O)cc2)cc1
- T/C [7]: 97 % of control
- T/C [8]: 97 % of control

Structure (SMILES): [N-]=[N+]=NC(=O)C1C2CC3C(C2)C31 (stereo unspecified)
- T/C [9]: 95 % of control
- T/C [10]: 88 % of control

Structure (SMILES): c1ccc([Si](C[CH2][Sn]([c]2ccccc2)([c]2ccccc2)[c]2ccccc2)(c2ccccc2)c2ccc([Si](C[CH2][Sn]([c]3ccccc3)([c]3ccccc3)[c]3ccccc3)(c3ccccc3)c3ccccc3)cc2)cc1
- T/C (dose: 100.0 mg/kg/injection, schedule: Q04DX003 (ip), vehicle: saline with Tween-80): 100 % of control
- T/C (dose: 200.0 mg/kg/injection, schedule: Q04DX003 (ip), vehicle: saline with Tween-80): 96 % of control
- T/C (dose: 400.0 mg/kg/injection, schedule: Q04DX003 (ip), vehicle: saline with Tween-80): 96 % of control

Structure (SMILES): CN(Cc1ccccc1)C(Cc1c[nH]c2ccccc12)C(=O)O (stereo unspecified)
- T/C (dose: 25.0 mg/kg/injection, schedule: Q04DX003 (ip), vehicle: saline): 111 % of control
- T/C (dose: 50.0 mg/kg/injection, schedule: Q04DX003 (ip), vehicle: saline): 108 % of control
- T/C [11]: 100 % of control
- T/C [2]: 94 % of control
- T/C (dose: 150.0 mg/kg/injection, schedule: Q04DX003 (ip), vehicle: acetone): 91 % of control
- T/C (dose: 225.0 mg/kg/injection, schedule: Q04DX003 (ip), vehicle: acetone): 109 % of control
- T/C (dose: 335.0 mg/kg/injection, schedule: Q04DX003 (ip), vehicle: acetone): 100 % of control

Structure (SMILES): CC(=O)N1Cc2ncnc(N)c2C1
- T/C [9]: 101 % of control
- T/C [10]: 95 % of control
- T/C (dose: 400.0 mg/kg/injection, schedule: Q01DX001 (ip), vehicle: carboxymethylcellulose (CMC)): 101 % of control

Structure (SMILES): COc1cc2c(cc1OC)C(NNC(C)=O)CCCC2 (stereo unspecified)
- T/C [11]: 97 % of control
- T/C [12]: 97 % of control
- T/C [13]: 103 % of control

Structure (SMILES): COC(=O)Nc1ccccc1
- T/C (dose: 100.0 mg/kg/injection, schedule: Q01DX001 (ip), vehicle: Klucel (hydroxypropylcellulose) (HPC)): 97 % of control
- T/C (dose: 100.0 mg/kg/injection, schedule: Q04DX002 (ip), vehicle: gum acacia): 113 % of control
- T/C (dose: 200.0 mg/kg/injection, schedule: Q01DX001 (ip), vehicle: Klucel (hydroxypropylcellulose) (HPC)): 98 % of control
- T/C (dose: 200.0 mg/kg/injection, schedule: Q04DX002 (ip), vehicle: gum acacia): 100 % of control
- T/C (dose: 400.0 mg/kg/injection, schedule: Q01DX001 (ip), vehicle: Klucel (hydroxypropylcellulose) (HPC)): 101 % of control
- T/C (dose: 400.0 mg/kg/injection, schedule: Q04DX002 (ip), vehicle: gum acacia): 103 % of control

Structure (SMILES): COc1ccc(OC)c(/C=C/C=O)c1
- T/C [11]: 110 % of control
- T/C [12]: 96 % of control
- T/C [13]: 98 % of control

Structure (SMILES): CCCC(C)C(C#N)c1ccccc1 (stereo unspecified)
- T/C (dose: 25.0 mg/kg/injection, schedule: Q01DX009 (ip), vehicle: Klucel (hydroxypropylcellulose) (HPC)): 101 % of control and 103 % of control
- T/C (dose: 25.0 mg/kg/injection, schedule: Q04DX003 (ip), vehicle: Klucel (hydroxypropylcellulose) (HPC)): 95 % of control
- T/C (dose: 50.0 mg/kg/injection, schedule: Q01DX009 (ip), vehicle: Klucel (hydroxypropylcellulose) (HPC)): 93 % of control and 98 % of control and 90 % of control
- T/C (dose: 50.0 mg/kg/injection, schedule: Q04DX003 (ip), vehicle: Klucel (hydroxypropylcellulose) (HPC)): 88 % of control
- T/C [7]: 89 % of control

Structure (SMILES): CCOC(=O)CNc1ccc(F)cc1Cl
- T/C [14]: 105 % of control
- T/C [15]: 101 % of control
- T/C [16]: 105 % of control

Structure (SMILES): O=c1scc(-c2ccc(-c3ccccc3)cc2)s1
- T/C [14]: 109 % of control
- T/C [15]: 95 % of control
- T/C [16]: 109 % of control

Structure (SMILES): CCOP(=S)(OCC)SC(C)c1ccccc1 (stereo unspecified)
- T/C (dose: 50.0 mg/kg/injection, schedule: Q01DX009 (ip), vehicle: saline with Tween-80): 95 % of control
- T/C (dose: 100.0 mg/kg/injection, schedule: Q01DX009 (ip), vehicle: saline with Tween-80): 91 % of control
- T/C (dose: 200.0 mg/kg/injection, schedule: Q01DX009 (ip), vehicle: saline with Tween-80): 100 % of control

Structure (SMILES): Oc1c(Cl)cc(C(c2cc(Cl)c(O)c(Cl)c2)C(c2cc(Cl)c(O)c(Cl)c2)c2cc(Cl)c(O)c(Cl)c2)cc1Cl
- T/C [2]: 101 % of control
- T/C [4]: 96 % of control
- T/C [6]: 103 % of control

Structure (SMILES): C#CC(O)C1OC(C)(C)OC1C1COC(C)(C)O1 (stereo unspecified)
- T/C [7]: 97 % of control
- T/C [8]: 92 % of control
- T/C (dose: 400.0 mg/kg/injection, schedule: Q04DX003 (ip), vehicle: Klucel (hydroxypropylcellulose) (HPC)): 94 % of control

Structure (SMILES): NC(=O)c1ccc[n+](CC(=O)NCc2ccccc2)c1
- T/C [2]: 96 % of control
- T/C [4]: 93 % of control
